Values of other authors as cited in publication PMC9069326 (RSC Advances, 2019).
pKd: −log10 of the molar value.

Molecular target: Gal-3 (Homo sapiens, UniProt P17931)
Conditions: cited from earlier work

Sequence of Gal-3 (P17931 whole entry, species assumed): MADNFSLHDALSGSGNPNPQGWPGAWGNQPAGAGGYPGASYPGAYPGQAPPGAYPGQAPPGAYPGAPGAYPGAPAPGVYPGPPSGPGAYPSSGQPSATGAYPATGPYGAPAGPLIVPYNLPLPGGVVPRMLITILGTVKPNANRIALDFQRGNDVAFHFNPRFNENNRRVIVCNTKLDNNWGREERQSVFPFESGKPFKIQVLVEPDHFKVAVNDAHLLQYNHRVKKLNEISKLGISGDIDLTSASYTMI

Row | Molecule | pKd
1 | O=C[C@H](O)[C@@H](O)[C@@H](O)[C@H](O)CO [Gal, β-Galactose] | ~2.00
2 | Galβ1-4GlcNAc [LacNAc] | 4.15
